According to US20100204161A1, “Substances and Pharmaceutical Compositions for the Inhibition of Glyoxalases and Their Use Against Bacteria” (BIOMAC PRIVATINSTITUT FUR MEDIZINISHE UND ZAHMEDIZ …, priority 2005, published 2010):

How the values were obtained:
[1] = tested on: primary human skin fibroblasts; assay: Vitality of primary human fibroblasts (dye exclusion count); type: cell-based; settings: 1-50 mM, serum free medium, 24 hours; FIG. 7
Method: An identical number (10^4 cells per well) of primary human skin fibroblasts were inoculated in 24-well plates (Greiner, no. 662160) and were cultured in DMEM (Gibco; no. 41966-092) in the presence of 10% calf serum (Biochrom, S0113/5), 2 mM L-glutamine (Gibco; no. 25030-024), penicillin/streptomycin (100 units penicillin/ml; 100 μg streptomycin/ml, Gibco; no. 15140/122), 5 mg % ascorbic acid (Serva, no. 14030.02) at 37° C., 5% CO2 and 95% humidity. The primary human fibroblasts were prepared according to the instructions of Birkenmeier et al. (1998). After reaching 50% confluency the medium was by fresh serum free medium. Thereafter the following supplements were added to the cells: preparation 1 (equivalent volume of serum free (SF) medium, blank); preparation 2 (1 mM DEL or 1 mM LEL or 1 mM EP); preparation 3 (5 mM DEL or 5 mM LEL or 5 mM EP), preparation 4 (10 mM DEL or 10 mM LEL or 10 mM EP), preparation 5 (20 mM DEL or 20 mM LEL or 20 mM EP), preparation 6 (50 mM DEL or 50 mM LEL or 50 mM EP). The culture was continued at 37° C., 5% CO2 and 95% humidity for 24 hours. Thereafter the supernatants were removed and 100 μl of a 50% […] solution was added to the wells. After washing the cells with medium the unstained and stained cells were counted under the light optical microscope comprising a coordinate plane. Cells stained blue were assessed as avital, unstained cells as vital. The percentage of unstained cells of the total number of cells corresponds to the vitality of the cells.

[2] = biological target: T1, glyoxalase II of human erythrocytes (Homo sapiens, UniProt Q16775); assay: Enzymatic activity of human erythrocyte glyoxalase II (erythrocyte hemolysate); type: biochemical; settings: 0-20 mM; FIG. 6
T1 construct: from tissue; host or cells: human erythrocyte hemolysate
Method: The determination of erythrocyte glyoxalase II (E.C.3.1.2.6., hydroxyacyl glutathione hydrolase) was performed according to the instructions of McLellan and Thornalley (1989). The principle is based on determining the initial hydrolysis of S-D-lactoyl-glutathione (L 7140, Sigma-Aldrich Chemie GmbH) in the presence of low amounts of a cell extract. Hydrolysis is observed on the basis of the reduction of the extinction at 240 nm (e=−3.1 mM-1 cm-1). Glyoxalase II activity (IU) correlates to the amount of enzyme hydrolysing 1 μmol of S-D-lactoyl-glutathione/min. The measurement was performed in 100 mM Tris-HCl buffer, pH 7.4. For this purpose 0.4 mM S-D-lactoyl-glutathione was added to 1 ml of the measuring reagent and the reaction was started by addition of suitable amounts (5-100 μl) of an erythrocyte hemolysate. The erythrocyte lysate was prepared according to the instructions of Mannervik et al. (1982).
Determination of glyoxalase II activity was performed according to the general protocol as described above. The influence of ethyl pyruvate on the activity of the enzyme was investigated by addition of increasing concentrations of EP (Sigma, no. E 4, 780-8; lot. S18972-513) (0-20 mM) to the measuring reagent.

[3] = tested on: biofilms (biofilm-forming microorganisms from pipe water); assay: Destruction of biofilms on contaminated silicone surfaces (colony forming units); type: cell-based; settings: for Colony forming units derivable from biofilms after treatment: normalized to 1 cm2 inner tube surface
Method: Biofilms were allowed to generate in a silicon tube system according to Gebel et al. (2005). In short, pipe water from a public water distributor was used as the source of biofilm-forming microorganisms. Water flow was at about 20 l per hour through silicon tubes from two commercial suppliers with inner diameters of 4 mm for 30 days at 25° C. After that the tubes were emptied, sealed at both ends and treated on their outer surface with 0.2% peroxoacetic acid for 1 hour. Tubes were then rinsed with sterile water and afterwards cut into pieces of 5 cm length each using a sterile scalpel. Pieces obtained this way were then dipped into solutions which contained the substance to be tested or respective controls. 25 ml of the test solutions were used in closed Falcon tubes (50 ml). […] Tubes were opened over their full length with scissors and the material deposited at the original inner surfaces of the tubes homogenized in 10 ml of saline (9 g NaCl/l water). Dilutions were made (decimal steps to 10^4) and 0.1 ml of these solutions plated onto test agar plates (1 l contained 0.5 g yeast extract, 0.5 g peptone, 0.5 g casein hydrolysate, 0.5 g starch. 0.3 g potassium hydrogen phosphate, 24 mg magnesium sulphate, 0.3 g sodium pyruvate, 15 g agar). Plates were incubated for seven days at 20° C. Colonies which formed were counted on each plate independent of their appearance and color. […] Two dilutions must be consistent in colony numbers, taken into consideration the respective dilution factors. Numbers were normalized to 1 cm2 of the inner tube surface. Each substance was analysed in duplicates. Biofilms were treated with water (control), ethyl pyruvate […] Numbers are given for each of the different silicon tubes used.

yeast glyoxalase II = assay: Enzymatic activity of yeast glyoxalase II (cell free extract, DTNB, 412 nm); type: biochemical, Saccharomyces cerevisiae; settings: 0-20 mM; FIG. 4
Method: Protein concentration of the cell free extract was determined according to the Bradford method (Bradford, 1976).
The activity of the glyoxalase II (Hydroxyacyl glutathione hydrolase, E.C. 3.1.2.6.) was determined according to the instructions of Martins et al. (1999) in 0.1 M MES buffer, pH 6.5, 1.5 mM S-D-lactoyl-glutathione (L7140, Sigma-Aldrich Chemistry GmbH) and 0.75 mM DTNB (Sigma, D8130). After addition of suitable amounts of cell extract and an incubation period of 15 min at 25° C. the formation of glutathione was measured at 412 nm (ε=13.6 mM^−1 cm^−1). The activity of the glyoxalase II (IU) correlates with the amount of enzyme hydrolysing 1 μmol of S-D-lactoyl-glutathion/min.
The influence of ethyl pyruvate on the activity of the enzyme was investigated by adding increasing concentrations of EP (Sigma, No. E4, 780-8; Lot. S18972-513) (0-20 mM) to the measurement reagent.

Structure (SMILES): CCOC(=O)C(C)=O [Ethyl pyruvate]
- Effect on the vitality of primary human fibroblasts [1]: not toxic over the concentration range investigated
- Inhibition of the enzymatic activity of glyoxalase II of human erythrocytes [2]: inhibits the reaction of glyoxalase II in a concentration dependent manner
- Colony forming units derivable from biofilms after treatment ([3]; 10 mM, 30 min, first silicon tube): 4.9 × 10^3 colony forming units
- Colony forming units derivable from biofilms after treatment ([3]; 10 mM, 30 min, second silicon tube): 5.2 × 10^3 colony forming units
- Colony forming units derivable from biofilms after treatment ([3]; 10 mM, 120 min, first silicon tube): 1.6 × 10^3 colony forming units
- Colony forming units derivable from biofilms after treatment ([3]; 10 mM, 120 min, second silicon tube): 1.7 × 10^3 colony forming units
- Colony forming units derivable from biofilms after treatment ([3]; 25 mM, 30 min, first silicon tube): 4.4 × 10^2 colony forming units
- Colony forming units derivable from biofilms after treatment ([3]; 25 mM, 30 min, second silicon tube): 4.2 × 10^2 colony forming units
- Colony forming units derivable from biofilms after treatment ([3]; 25 mM, 120 min, first silicon tube): <10^2 colony forming units
- Colony forming units derivable from biofilms after treatment ([3]; 25 mM, 120 min, second silicon tube): <10^2 colony forming units
- number of colony forming units after treatment of biofilm ([3]; 25 mM, decreases from about 10^7, Table 5): < 10^2 colony forming units
- Effectiveness against biofilms compared to peroxoacetic acid ([3]; compared to 0.1% peroxoacetic acid): even more effective compared to a common disinfectant
- Influence on the enzymatic activity of yeast glyoxalase II (yeast glyoxalase II): inhibits the reaction of yeast glyoxalase II in a concentration dependent manner
